Experimental data published in US8129398B2 (priority 2008, dated 2012).
pEC50, pIC50, pKi: −log10 of the molar value. Read-outs that look alike come from different tables or passages of the source.

What was measured:
[1] = tested on: recombinant NL-Rluc virus; experiment: Inhibition of HIV replication (recombinant NL-Rluc virus, Renilla luciferase reporter); format: cell-based
HIV-integrase = molecular target: T1, HIV-integrase (Human immunodeficiency virus type 1 group M subtype B, UniProt P12497); experiment: HIV-Integrase Inhibition Activity (SPA bead integration assay with P33 labeled target DNA); format: biochemical; conditions: for pIC50: recombinant integrase, class symbols, read-out: in vitro activity; for pKi: representative compounds
T1 construct: Recombinant integrase (0.26 ng) was incubated with the beads
Summary of the method: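 Strand integration read as bead-proximity CPM after P33 target DNA (0.1 fmol) and inhibitor were added to washed integrase–substrate DNA complexes on SPA beads. Enzyme bound 90 min at 37° C; EDTA (10 mM final) terminated reaction; IC50 graded A/B/C.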

[2] = read-out: Antiviral activity, NL-Rluc virus, serum condition not specified (10% FBS, 15 mg/ml human serum albumin/10% FBS or 40% human serum/5% FBS), class symbols

Row | Structure (SMILES) | pEC50 [1, 2] | pIC50 (HIV-integrase) | pEC50 ([1]; Human immunodeficiency virus 1) | pKi (HIV-integrase)
1 | CN(C)C(=O)C(=O)NC12CCC(Cn3c1nc(C(=O)NCc1ccc(F)cc1)c(O)c3=O)C2 (single isomer, unassigned) [Example 412, Ethanediamide, N′-[2-[[[(4-fluorophenyl)methyl]amino]carbonyl]-6,7,8,9-tetrahydro-3-hydroxy-4-oxo-7,11-methanopyrimido[1,2-a]azepin-10(4H)-yl]-N,N-dimethyl-] | > 8.00 | > 8.00 | – | –
2 | CN(C)C(=O)C(=O)NC12CCC(CCn3c1nc(C(=O)NCc1ccc(F)cc1)c(O)c3=O)C2 (single isomer, unassigned) [Example 414, Ethanediamide, N′-[2-[[[(4-fluorophenyl)methyl]amino]carbonyl]-7,8,9,10-tetrahydro-3-hydroxy-4-oxo-8,11-methano-4H-pyrimido[1,2-a]azocin-11(6H)-yl]-N,N-dimethyl-] | > 8.00 | > 8.00 | – | –
3 | O=C(NCc1ccc(F)cc1)c1nc2n(c(=O)c1O)CC1CC2CN(C(=O)OCc2ccccc2)C1 (stereo not shown) [Example 6, 7,11-Methano-4H-pyrimido[1,2-a][1,5]diazocine-9(6H)-carboxylic acid, 2-[[[(4-fluorophenyl)methyl]amino]carbonyl]-7,8,10,11-tetrahydro-3-hydroxy-4-oxo-, phenylmethyl ester] | – | 7.00 to 8.00 | 6.85 | 7.92
4 | NC12CCC(CC1)Cn1c2nc(C(=O)NCc2ccc(F)cc2)c(O)c1=O [Example 19, 10-Amino-N-(4-fluorobenzyl)-3-hydroxy-4-oxo-4,6,7,8,9,10-hexahydro-7,10-ethanopyrimido[1,2-a]azepine-2-carboxamide] | – | < 7.00 | 6.52 | 6.90
5 | O=C(NC12CCC(CC1)Cn1c2nc(C(=O)NCc2ccc(F)cc2)c(O)c1=O)c1cccnc1 [Example 33, N-(4-Fluorobenzyl)-3-hydroxy-4-oxo-10-((3-pyridinylcarbonyl)amino)-4,6,7,8,9,10-hexahydro-7,10-ethanopyrimido[1,2-a]azepine-2-carboxamide] | – | > 8.00 | 8.70 | 9.00
6 | CC(=O)NC12CCC(CC1)Cn1c2nc(C(=O)NCc2ccc(F)cc2-n2ncnc2C)c(O)c1=O [Example 38, 10-(Acetylamino)-N-(4-fluoro-2-(5-methyl-1H-1,2,4-triazol-1-yl)benzyl)-3-hydroxy-4-oxo-4,6,7,8,9,10-hexahydro-7,10-ethanopyrimido[1,2-a]azepine-2-carboxamide] | – | > 8.00 | 7.43 | 8.05
7 | O=C(NCc1ccc(F)cc1)c1nc2n(c(=O)c1O)CC1CCC2(NS(=O)(=O)C2CC2)CC1 [Example 41, 10-((Cyclopropylsulfonyl)amino)-N-(4-fluorobenzyl)-3-hydroxy-4-oxo-4,6,7,8,9,10-hexahydro-7,10-ethanopyrimido[1,2-a]azepine-2-carboxamide] | – | > 8.00 | > 9.00 | 9.00
8 | Cc1cc(CNC(=O)c2nc3n(c(=O)c2O)CC2CCC3(NS(=O)(=O)C3CC3)CC2)ccc1F [Example 42, 10-((Cyclopropylsulfonyl)amino)-N-(4-fluoro-3-methylbenzyl)-3-hydroxy-4-oxo-4,6,7,8,9,10-hexahydro-7,10-ethanopyrimido[1,2-a]azepine-2-carboxamide] | – | > 8.00 | 9.00 | 9.00
9 | O=C(NC12CCC(CC1)Cn1c2nc(C(=O)NCc2ccc(F)cc2)c(O)c1=O)C(=O)c1c[nH]c2c(-n3cncn3)ncc(F)c12 [Example 48, N-(4-Fluorobenzyl)-10-(((4-fluoro-7-(1H-1,2,4-triazol-1-yl)-1H-pyrrolo[2,3-c]pyridin-3-yl)(oxo)acetyl)amino)-3-hydroxy-4-oxo-4,6,7,8,9,10-hexahydro-7,10-ethanopyrimido[1,2-a]azepine-2-carboxamide] | – | > 8.00 | 8.40 | 9.00
10 | O=C(NC12CCC(Cn3c1nc(C(=O)NCc1ccc(F)cc1)c(O)c3=O)OC2)OCc1ccccc1 (stereo not shown) [Example 219, Benzyl (2-((4-fluorobenzyl)carbamoyl)-3-hydroxy-4-oxo-6,7,8,9-tetrahydro-7,10-(epoxymethano)pyrimido[1,2-a]azepin-10(4H)-yl)carbamate] | – | 7.00 to 8.00 | 7.43 | 7.92
11 | CCS(=O)(=O)N1CCCC1C(=O)NC12CCC(CC1)Cn1c2nc(C(=O)NCc2ccc(F)cc2)c(O)c1=O (stereo not shown) [Example 403] | – | > 8.00 | – | –
12 | CCCS(=O)(=O)N1CCCC1C(=O)NC12CCC(CC1)Cn1c2nc(C(=O)NCc2ccc(F)cc2)c(O)c1=O (stereo not shown) [Example 404] | – | > 8.00 | – | –
13 | CC(C)OC(=O)N1CCCC1C(=O)NC12CCC(CC1)Cn1c2nc(C(=O)NCc2ccc(F)cc2)c(O)c1=O (stereo not shown) [Example 405] | – | > 8.00 | – | –
14 | COC(=O)N1CCCC1C(=O)NC12CCC(CC1)Cn1c2nc(C(=O)NCc2ccc(F)cc2)c(O)c1=O (stereo not shown) [Example 406] | – | > 8.00 | – | –
15 | O=C(NCc1ccc(F)cc1)c1nc2n(c(=O)c1O)CC1CCC2(NC(=O)C2CCCN2C(=O)C2CC2)CC1 (stereo not shown) [Example 407] | – | > 8.00 | – | –
16 | O=C(NCc1ccc(F)cc1)c1nc2n(c(=O)c1O)CC1CCC2(NC(=O)C2CCCN2S(=O)(=O)C2CCCC2)CC1 (stereo not shown) [Example 408] | – | > 8.00 | – | –
17 | O=C(NCc1ccc(F)cc1)c1nc2n(c(=O)c1O)CC1CCC2(NC(=O)C2CCCN2S(=O)(=O)c2ncn[nH]2)CC1 (stereo not shown) [Example 409] | – | > 8.00 | – | –
18 | O=C(NCc1ccc(F)cc1)c1nc2n(c(=O)c1O)CC1CCC2(NC(=O)C2CCCN2S(=O)(=O)c2ccco2)CC1 (stereo not shown) [Example 410] | – | > 8.00 | – | –
19 | Cc1cc(CNC(=O)c2nc3n(c(=O)c2O)CC[C@@H]2CC[C@@]3(NC(=O)C(=O)N(C)C)C2)ccc1F [Example 415, Ethanediamide, N′-[(8S,11R)-2-[[[(4-fluoro-3-methylphenyl)methyl]amino]carbonyl-7,8,9,10-tetrahydro-3-hydroxy-4-oxo-8,11-methano-4H-pyrimido[1,2-a]azocin-1](6H)-yl]-N,N-dimethyl-] | – | > 8.00 | – | –
20 | Cc1cc(CNC(=O)c2nc3n(c(=O)c2O)CC[C@H]2CC[C@]3(NC(=O)C(=O)N(C)C)C2)ccc1F [Example 416, Ethanediamide, N′-[(8R,11S)-2-[[[(4-fluoro-3-methylphenyl)methyl]amino]carbonyl]-7,8,9,10-tetrahydro-3-hydroxy-4-oxo-8,11-methano-4H-pyrimido[1,2-a]azocin-11(6H)-yl]-N,N-dimethyl-] | – | > 8.00 | – | –
21 | O=C(N[C@]12CC[C@H](CCn3c1nc(C(=O)NCc1ccc(F)cc1)c(O)c3=O)C2)C(=O)N1CC[C@@H](F)C1 [Example 417, 8,1,1-Methano-4H-pyrimido[1,2-a]azocine-2-carboxamide, N-[(4-fluorophenyl)methyl]-11-[[2-[(3R)-3-fluoro-1-pyrrolidinyl]-1,2-dioxoethyl]amino]-6,7,8,9,10,11-hexahydro-3-hydroxy-4-oxo-, (8R,11S)—] | – | > 8.00 | – | –
22 | O=C(N[C@@]12CC[C@@H](CCn3c1nc(C(=O)NCc1ccc(F)cc1)c(O)c3=O)C2)C(=O)N1CC[C@@H](F)C1 [Example 418, 8,1,1-Methano-4H-pyrimido[1,2-a]azocine-2-carboxamide, N-[(4-fluorophenyl)methyl]-11-[[2-[(3R)-3-fluoro-1-pyrrolidinyl]-1,2-dioxoethyl]amino]-6,7,8,9,10,11-hexahydro-3-hydroxy-4-oxo-, (8S,11R)—] | – | > 8.00 | – | –
